According to patent US20040133008A1, “Amide compounds” (FUJISAWA PHARMACEUTICAL CO., LTD., priority 2002, published 2004):

How the values were obtained:
[1] = system: Apo B secretion; assay: Measurement of Inhibition of Apo B Secretion; type: cell-based; details: Homo sapiens; HepG2 cells, 10^−8 M test compound, 15-hour incubation, Apo B in media by ELISA, 0.1% DMSO treated cells as controls
Method: Test 1: Measurement of Inhibition of Apo B Secretion
HepG2 cells were seeded in Eagles medium containing 10% fetal calf serum (FCS) at a density of 30000 cells/well in 96-well plates and allowed to grow for 3 days before treatment. At this time, the medium was replaced with fresh medium containing 0.1% dimethyl sulfoxide (DMSO) and the indicated concentrations of a test compound. After 15-hour incubation, the amount of Apo B and Apo AI accumulated in the media was determined by ELISA.
The assay was carried out at ambient temperature. A flat bottomed micro ELISA plate (manufactured by Nunc) was coated with an anti Apo B monoclonal antibody solution ([…] in 0.05% carbonate buffer, pH 9.6) by adding the antibody solution at a volume of 100 μl per well. After 1-hour incubation on a plate mixer, the unbound materials were removed by washing the well 3 times with a washing buffer (phosphate buffered saline, pH 7.2 containing 0.1% bovine serum albumin and 0.05% Tween-20). Then 20 μl of […] and 100 μl of a solution of peroxidase coupled anti Apo B antibody were added. After 1-hour incubation on a plate mixer, washing was performed 3 times to remove the unbound materials. A freshly prepared substrate solution (2.5 mg/ml ortho-phenylene diamine and 0.018% H2O2 in 0.11 M Na2HPO4-0.044 M sodium citrate buffer, pH 5.4) at a volume of 200 μl was then added to each well. After 20-minute incubation, the enzyme reaction was terminated by adding 50 μl of 0.5 M sulfuric acid. Absorbance of each well was determined at 490 nm using a microplate reader. Apo B concentration was calculated from a standard curve generated from purified Apo B standard that was run in parallel in the same plate. Inhibition of Apo B secretion by the test compound was calculated taking 0.1% DMSO treated cells as controls.
Measurement of Apo AI was performed similar to that of Apo B, except for diluting the sample 11-fold with a dilution buffer (phosphate buffered saline, pH 7.2 containing 0.5% bovine serum albumin and 0.05% Tween-20).
Apo B secretion inhibitors are identified as compounds that decrease Apo B secretion without affecting the secretion of Apo AI.

[2] = system: ddY-mice; assay: Lipid Lowering Effect on ddY-Mice; type: in vivo; details: male ddY-mice, dose 0.32 mg/kg orally in olive oil, plasma TG 2 hours after administration; (TG increase in drug treated group/TG increase in control group)×100
Method: Test 2: Lipid Lowering Effect on ddY-Mice
Male ddY-mice were housed in temperature- and humidity-controlled rooms and fed with laboratory chow. The animals were randomized according to their body weight and food was deprived about 16 hours before experiment. Baseline blood sample was collected from the retro orbital venous plexus then the animals were orally dosed with drugs in olive oil (10 ml/kg). For control group, 10 ml/kg of olive oil was loaded orally. Blood samples were drawn at 2 hours after drug administration for the measurement of triglyceride (TG) elevation. Plasma TG was determined by conventional enzyme method (The triglyceride E-test Wako).
Lipid lowering effects were shown in percent of the TG increase in drug treated group, relative to the TG increase in control group.
Lipid lowering effect(%)=(TG increase in drug treated group/TG increase in control group)×100

Cc1ccc(C(=O)Nc2ccc(NCCc3ccccn3)cc2)c(N(C)C)c1 [Example 42, 2-(Dimethylamino)-4-methyl-N-(4-{[2-(2-pyridinyl)ethyl]amino}phenyl)benzamide]
inhibition at 0.01 µM [1]: 85.8%
TG increase relative to control (%) [2]: 33%

CC1CCN(c2ncccc2C(=O)Nc2ccc(NCCc3ccccn3)cc2)CC1 [Example 54, 2-(4-Methyl-1-piperidinyl)-N-(4-{[2-(2-pyridinyl)ethyl]amino}phenyl)nicotinamide]
inhibition at 0.01 µM [1]: 86.3%
TG increase relative to control (%) [2]: 28%

Cc1ccc(C(=O)Nc2ccc(NCCn3cccn3)cc2)c(N(C)C)c1 [Example 183, 2-(dimethylamino)-4-methyl-N-(4-{[2-(1H-pyrazol-1-yl)ethyl]amino}phenyl)benzamide]
inhibition at 0.01 µM [1]: 81.2%
TG increase relative to control (%) [2]: 27%

Cc1ccc(C(=O)Nc2ccc(NC(=O)Cn3cccn3)cc2)c(N2CCC(C)CC2)n1 [Example 193, 6-methyl-2-(4-methyl-1-piperidinyl)-N-{4-[(1H-pyrazol-1-ylacetyl)amino]phenyl}nicotinamide]
inhibition at 0.01 µM [1]: 71.5%

Cc1ccc(C(=O)Nc2ccc(NC(=O)C(C)c3ccccn3)cc2)c(N2CCC(C)CC2)n1 (centres unmarked) [Example 415, 6-Methyl-2-(4-methyl-1-piperidinyl)-N-(4-{[2-(2-pyridinyl)propanoyl]amino}phenyl)nicotinamide]
inhibition at 0.01 µM [1]: 76.2%

CN(C)c1cc(Cl)ccc1C(=O)Nc1ccc(NCCc2cccc(N)n2)cc1 [Example 435, N-(4-{[2-(6-Amino-2-pyridinyl)ethyl]amino}phenyl)-4-chloro-2-(dimethylamino)benzamide]
inhibition at 0.01 µM [1]: 85.9%
TG increase relative to control (%) [2]: 52%

CCc1ccc(C(=O)Nc2ccc(NCCn3cccn3)cc2)c(N(C)C)c1 [Example 473, 2-(Dimethylamino)-4-ethyl-N-(4-{[2-(1H-pyrazol-1-yl)ethyl]amino}phenyl)benzamide]
inhibition at 0.01 µM [1]: 75.7%
